Test results reported in the NIST ThermoML archive (doi:10.1016/j.jct.2015.06.036).
Numbers after ± are expanded uncertainties.

Assays:
[1] = refractive index (Na D-line) (dimensionless); conditions: 101 kPa, Liquid, Standard Abbe refractometry
[2] = 101 kPa, Liquid; for viscosity: Falling or rolling sphere viscometry; for speed of sound: Sing-around technique in a fixed-path interferometer; for mass density: Vibrating tube method
[3] = refractive index (Na D-line) (dimensionless); xn = mol fraction of the nth substance listed; conditions: 101 kPa, Liquid, Standard Abbe refractometry, x2 = 0
[4] = xn = mol fraction of the nth substance listed; conditions: 101 kPa, Liquid, x2 = 0; for viscosity: Falling or rolling sphere viscometry; for speed of sound: Sing-around technique in a fixed-path interferometer; for mass density: Vibrating tube method

Structure (SMILES) | refractive index ([1]; 288.15 K) | refractive index ([1]; 298.15 K) | refractive index ([1]; 308.15 K) | refractive index ([1]; 318.15 K) | viscosity ([2]; 278.15 K) [mPa·s] | speed of sound ([2]; 278.15 K) [m/s] | mass density ([2]; 278.15 K) [kg/m3] | viscosity ([2]; 288.15 K) [mPa·s] | speed of sound ([2]; 288.15 K) [m/s] | mass density ([2]; 288.15 K) [kg/m3] | viscosity ([2]; 298.15 K) [mPa·s] | speed of sound ([2]; 298.15 K) [m/s] | mass density ([2]; 298.15 K) [kg/m3] | viscosity ([2]; 308.15 K) [mPa·s] | speed of sound ([2]; 308.15 K) [m/s] | mass density ([2]; 308.15 K) [kg/m3] | viscosity ([2]; 318.15 K) [mPa·s] | speed of sound ([2]; 318.15 K) [m/s] | mass density ([2]; 318.15 K) [kg/m3] | refractive index ([3]; 288.15 K) | also measured
CCCCn1cc[n+](C)c1.F[B-](F)(F)F [1-butyl-3-methylimidazolium tetrafluoroborate] | 1.4243 ± 0.0005 | 1.4217 ± 0.0005 | 1.419 ± 0.0005 | 1.4164 ± 0.0005 | 361 ± 26 | 1615 ± 2 | 1215.9 ± 0.4 | 186 ± 11 | 1590 ± 2 | 1208.5 ± 0.4 | 105 ± 5 | 1565 ± 2 | 1201.3 ± 0.4 | 64.8 ± 2.7 | 1542 ± 2 | 1194.2 ± 0.4 | 42.7 ± 1.8 | 1519 ± 2 | 1187.2 ± 0.4 |  | 
CCn1cc[n+](C)c1.F[B-](F)(F)F [1-ethyl-3-methylimidazolium tetrafluoroborate] | 1.4143 ± 0.0006 | 1.4118 ± 0.0006 | 1.4092 ± 0.0006 | 1.4067 ± 0.0006 | 101 ± 5 | 1677 ± 3 | 1305.3 ± 1.5 | 62 ± 2.6 | 1653 ± 3 | 1297.6 ± 1.5 | 41 ± 1.7 | 1629 ± 3 | 1290 ± 1.5 | 28.8 ± 1.2 | 1606 ± 3 | 1282.4 ± 1.5 | 21.2 ± 0.9 | 1583 ± 3 | 1274.9 ± 1.5 |  | 
CO [methanol] | 1.3316 ± 0.0005 | 1.3265 ± 0.0005 | 1.3224 ± 0.0005 | 1.3182 ± 0.0005 | 0.687 ± 0.028 | 1169 ± 2 | 805.4 ± 0.2 | 0.596 ± 0.024 | 1135 ± 2 | 796 ± 0.2 | 0.524 ± 0.021 | 1102 ± 2 | 786.6 ± 0.2 | 0.466 ± 0.019 | 1070 ± 2 | 777.1 ± 0.2 | 0.42 ± 0.017 | 1037 ± 2 | 767.6 ± 0.2 |  | 
CO [methanol] + CCCCn1cc[n+](C)c1.F[B-](F)(F)F |  |  |  |  |  |  |  |  |  |  |  |  |  |  |  |  |  |  |  | 1.3316 ± 0.0005 | refractive index ([3]; 298.15 K): 1.3265 ± 0.0005; refractive index ([3]; 308.15 K): 1.3224 ± 0.0005; refractive index ([3]; 318.15 K): 1.3182 ± 0.0005; viscosity ([4]; 278.15 K): 0.687 ± 0.028 mPa·s; speed of sound ([4]; 278.15 K): 1169 ± 2 m/s; mass density ([4]; 278.15 K): 805.4 ± 0.2 kg/m3; viscosity ([4]; 288.15 K): 0.596 ± 0.024 mPa·s; speed of sound ([4]; 288.15 K): 1135 ± 2 m/s; mass density ([4]; 288.15 K): 796 ± 0.2 kg/m3; viscosity ([4]; 298.15 K): 0.524 ± 0.021 mPa·s; speed of sound ([4]; 298.15 K): 1102 ± 2 m/s; mass density ([4]; 298.15 K): 786.6 ± 0.2 kg/m3; viscosity ([4]; 308.15 K): 0.466 ± 0.019 mPa·s; speed of sound ([4]; 308.15 K): 1070 ± 2 m/s; mass density ([4]; 308.15 K): 777.1 ± 0.2 kg/m3; viscosity ([4]; 318.15 K): 0.42 ± 0.017 mPa·s; speed of sound ([4]; 318.15 K): 1037 ± 2 m/s; mass density ([4]; 318.15 K): 767.6 ± 0.2 kg/m3
CO [methanol] + CCn1cc[n+](C)c1.F[B-](F)(F)F |  |  |  |  |  |  |  |  |  |  |  |  |  |  |  |  |  |  |  | 1.3316 ± 0.0005 | refractive index ([3]; 298.15 K): 1.3265 ± 0.0005; refractive index ([3]; 308.15 K): 1.3224 ± 0.0005; refractive index ([3]; 318.15 K): 1.3182 ± 0.0005; viscosity ([4]; 278.15 K): 0.687 ± 0.028 mPa·s; speed of sound ([4]; 278.15 K): 1169 ± 2 m/s; mass density ([4]; 278.15 K): 805.4 ± 0.2 kg/m3; viscosity ([4]; 288.15 K): 0.596 ± 0.024 mPa·s; speed of sound ([4]; 288.15 K): 1135 ± 2 m/s; mass density ([4]; 288.15 K): 796 ± 0.2 kg/m3; viscosity ([4]; 298.15 K): 0.524 ± 0.021 mPa·s; speed of sound ([4]; 298.15 K): 1102 ± 2 m/s; mass density ([4]; 298.15 K): 786.6 ± 0.2 kg/m3; viscosity ([4]; 308.15 K): 0.466 ± 0.019 mPa·s; speed of sound ([4]; 308.15 K): 1069 ± 2 m/s; mass density ([4]; 308.15 K): 777.1 ± 0.2 kg/m3; viscosity ([4]; 318.15 K): 0.42 ± 0.017 mPa·s; speed of sound ([4]; 318.15 K): 1037 ± 2 m/s; mass density ([4]; 318.15 K): 767.6 ± 0.2 kg/m3
